# Assay results published in patent US20210267944A1 (BioXcel Therapeutics, Inc., priority 2018, published 2021).
# Where a name gives a salt, the structure may show the parent alone. Read-outs that look alike come from different tables or passages of the source.
# Details: for Respiration rate, Min / Systolic blood pressure, Max / Systolic blood pressure, Mean ± SD / Systolic blood pressure, Median / Systolic blood pressure, Min / Diastolic blood pressure Max / Diastolic blood pressure Mean ± SD / Diastolic blood pressure Median / Diastolic blood pressure Min / Pulse rate, Max / Pulse rate, Mean ± SD / Pulse rate, Median / Pulse rate, Min / Respiration rate, Max / Respiration rate, Mean ± SD / Respiration rate, Median: SDAT patients, IV infusion; for Subject stopping Criteria met (safety stoppage rule): subject 102
# Method: Study drug IV infusion was to be stopped at any time if any of the following occurred: • There was more than 20 mm Hg decrease in systolic or diastolic blood pressure. • There was an isolated drop in Systolic BP<100 mm of Hg. • There was an isolated drop Diastolic BP<60 mm of Hg. • There was a decrease in heart rate of 20 beats per minute or a drop below 50 beats per minute. • Attainment of a RASS of −1 at the end of each 30 minutes infusion period.
# Return to baseline parameters was defined as BP falling within 15 mm of Hg of baseline reading prior to drug administration or HR falling within 10 beats per minute of baseline reading prior to drug administration.
structure (smiles),measurement,setting,value
Cc1cccc([C@H](C)c2cnc[nH]2)c1C [dexmedetomidine hydrochloride],"Respiration rate, Min",01:15 Hr,15 breaths/min
same,"Systolic blood pressure, Max",01:15 Hr,152 mm of Hg
same,"Systolic blood pressure, Mean ± SD",01:15 Hr,135.6 ± 13.94 mm of Hg
same,"Systolic blood pressure, Median",01:15 Hr,141.0 mm of Hg
same,"Systolic blood pressure, Min",01:15 Hr,110 mm of Hg
same,Diastolic blood pressure Max,01:30 Hr,84 mm of Hg
same,Diastolic blood pressure Mean ± SD,01:30 Hr,70.6 ± 8.14 mm of Hg
same,Diastolic blood pressure Median,01:30 Hr,70.0 mm of Hg
same,Diastolic blood pressure Min,01:30 Hr,62 mm of Hg
same,"Pulse rate, Max",01:30 Hr,94 beats/min
same,"Pulse rate, Mean ± SD",01:30 Hr,72.0 ± 14.66 beats/min
same,"Pulse rate, Median",01:30 Hr,71.0 beats/min
same,"Pulse rate, Min",01:30 Hr,52 beats/min
same,"Respiration rate, Max",01:30 Hr,25 breaths/min
same,"Respiration rate, Mean ± SD",01:30 Hr,18.6 ± 3.38 breaths/min
same,"Respiration rate, Median",01:30 Hr,19.0 breaths/min
same,"Respiration rate, Min",01:30 Hr,15 breaths/min
same,"Systolic blood pressure, Max",01:30 Hr,156 mm of Hg
same,"Systolic blood pressure, Mean ± SD",01:30 Hr,130.9 ± 13.44 mm of Hg
same,"Systolic blood pressure, Median",01:30 Hr,129.5 mm of Hg
same,"Systolic blood pressure, Min",01:30 Hr,112 mm of Hg
same,Diastolic blood pressure Max,01:45 Hr,86 mm of Hg
same,Diastolic blood pressure Mean ± SD,01:45 Hr,69.5 ± 11.82 mm of Hg
same,Diastolic blood pressure Median,01:45 Hr,66.0 mm of Hg
same,Diastolic blood pressure Min,01:45 Hr,60 mm of Hg
same,"Pulse rate, Max",01:45 Hr,100 beats/min
same,"Pulse rate, Mean ± SD",01:45 Hr,79.0 ± 14.23 beats/min
same,"Pulse rate, Median",01:45 Hr,79.0 beats/min
same,"Pulse rate, Min",01:45 Hr,61 beats/min
same,"Respiration rate, Max",01:45 Hr,23 breaths/min
same,"Respiration rate, Mean ± SD",01:45 Hr,18.6 ± 2.51 breaths/min
same,"Respiration rate, Median",01:45 Hr,18.0 breaths/min
same,"Respiration rate, Min",01:45 Hr,17 breaths/min
same,"Systolic blood pressure, Max",01:45 Hr,158 mm of Hg
same,"Systolic blood pressure, Mean ± SD",01:45 Hr,131.3 ± 23.43 mm of Hg
same,"Systolic blood pressure, Median",01:45 Hr,131.0 mm of Hg
same,"Systolic blood pressure, Min",01:45 Hr,105 mm of Hg
same,Diastolic blood pressure Max,02:00 Hr,86 mm of Hg
same,Diastolic blood pressure Mean ± SD,02:00 Hr,78.7 ± 11.02 mm of Hg
same,Diastolic blood pressure Median,02:00 Hr,84.0 mm of Hg
same,Diastolic blood pressure Min,02:00 Hr,66 mm of Hg
same,"Pulse rate, Max",02:00 Hr,94 beats/min
same,"Pulse rate, Mean ± SD",02:00 Hr,77.3 ± 20.82 beats/min
same,"Pulse rate, Median",02:00 Hr,84.0 beats/min
same,"Pulse rate, Min",02:00 Hr,54 beats/min
same,"Respiration rate, Max",02:00 Hr,20 breaths/min
same,"Respiration rate, Mean ± SD",02:00 Hr,18.3 ± 1.53 breaths/min
same,"Respiration rate, Median",02:00 Hr,18.0 breaths/min
same,"Respiration rate, Min",02:00 Hr,17 breaths/min
same,"Systolic blood pressure, Max",02:00 Hr,156 mm of Hg
same,"Systolic blood pressure, Mean ± SD",02:00 Hr,143.3 ± 17.01 mm of Hg
same,"Systolic blood pressure, Median",02:00 Hr,150.0 mm of Hg
same,"Systolic blood pressure, Min",02:00 Hr,124 mm of Hg
same,Diastolic blood pressure Max,02:15 Hr,85 mm of Hg
same,Diastolic blood pressure Mean ± SD,02:15 Hr,69.7 ± 13.28 mm of Hg
same,Diastolic blood pressure Median,02:15 Hr,62.0 mm of Hg
same,Diastolic blood pressure Min,02:15 Hr,62 mm of Hg
same,"Pulse rate, Max",02:15 Hr,94 beats/min
same,"Pulse rate, Mean ± SD",02:15 Hr,74.3 ± 21.13 beats/min
same,"Pulse rate, Median",02:15 Hr,77.0 beats/min
same,"Pulse rate, Min",02:15 Hr,52 beats/min
same,"Respiration rate, Max",02:15 Hr,20 breaths/min
same,"Respiration rate, Mean ± SD",02:15 Hr,19.3 ± 1.15 breaths/min
same,"Respiration rate, Median",02:15 Hr,20.0 breaths/min
same,"Respiration rate, Min",02:15 Hr,18 breaths/min
same,"Systolic blood pressure, Max",02:15 Hr,159 mm of Hg
same,"Systolic blood pressure, Mean ± SD",02:15 Hr,142.7 ± 20.98 mm of Hg
same,"Systolic blood pressure, Median",02:15 Hr,150.0 mm of Hg
same,"Systolic blood pressure, Min",02:15 Hr,119 mm of Hg
same,Diastolic blood pressure Max,02:30 Hr,83 mm of Hg
same,Diastolic blood pressure Mean ± SD,02:30 Hr,76.5 ± 9.19 mm of Hg
same,Diastolic blood pressure Median,02:30 Hr,76.5 mm of Hg
same,Diastolic blood pressure Min,02:30 Hr,70 mm of Hg
same,"Pulse rate, Max",02:30 Hr,96 beats/min
same,"Pulse rate, Mean ± SD",02:30 Hr,85.5 ± 14.85 beats/min
same,"Pulse rate, Median",02:30 Hr,85.5 beats/min
same,"Pulse rate, Min",02:30 Hr,75 beats/min
same,"Respiration rate, Max",02:30 Hr,"20, 20 breaths/min"
same,"Respiration rate, Mean ± SD",02:30 Hr,20.0 ± 0.00 breaths/min
same,"Respiration rate, Median",02:30 Hr,20.0 breaths/min
same,"Respiration rate, Min",02:30 Hr,"20, 20 breaths/min"
same,"Systolic blood pressure, Max",02:30 Hr,154 mm of Hg
same,"Systolic blood pressure, Mean ± SD",02:30 Hr,153.0 ± 1.41 mm of Hg
same,"Systolic blood pressure, Median",02:30 Hr,153.0 mm of Hg
same,"Systolic blood pressure, Min",02:30 Hr,152 mm of Hg
same,"Diastolic blood pressure mean values, in words","SDAT, during infusion",within clinically acceptable limits
same,"Pulse rate mean values, in words","SDAT, during infusion",within clinically acceptable limits
same,"Respiration rate values, in words","SDAT, during infusion",within clinically acceptable limits
same,"Systolic blood pressure mean values, in words","SDAT, during infusion",within clinically acceptable limits
same,Subject stopping Criteria met (safety stoppage rule),SDAT,only one subject's systolic BP reduced by more than 20 mm of Hg
same,Subject stopping Criteria met (safety stoppage rule),"SDAT, listed as Test",SBP >20 mm of Hg decrease
same,time for systolic BP to return to baseline levels after infusion was stopped,"SDAT, the one subject with SBP decrease >20 mm of Hg",≤ 10 min
